Where two headings read alike, the source gives them in different places.
Test system: genotype 1b replicon carrying the firefly luciferase reporter
Test: HCV replicon in vitro combination assay, dual and triple combination (Example 1)
Type: cell-based
Conditions: Hepatitis C virus, 72 h, read-out: Individual IC50 values
Description: All compounds were dissolved in 100% DMSO (dimethyl sulfoxide) to a stock concentration of 10 mM and stored at −20° C. Serial 2-fold or 3-fold dilution series of compounds were prepared in 100% DMSO at 400-fold of the final concentration to be used in cell culture experiments that would result in a final DMSO concentration of 0.25% in growth medium.
Drug combination studies were carried out using the transient replicon system. On day one, in vitro transcribed RNA of a genotype 1b replicon carrying the firefly luciferase reporter was transfected into Huh-7-ET-cured cells using Minis transfection reagent. (Lohmann V et al., “Replication of subgenomic hepatitis C virus RNAs in a hepatoma cell line” Science (1999) 285(5424):110-113, which is hereby incorporated by reference in its entirety) Ten thousand transfected cells were cultured in complete DMEM medium [DMEM medium supplemented with 2 mM L-glutamine, 1× non-essential amino acids, 10% heat inactivated FBS and PenStrep (100 units/mL penicillin and 100 ug/mL streptomycin)] in the central 60 wells of 96-well, flat bottom, tissue culture treated plates and cultured at 37° C./5% CO2 humidified incubator for 24 h. The next day, compounds were serially diluted (2× or 3× dilution series) in 100% DMSO, mixed together in a checkerboard fashion and added to cells, and the plates were returned to the incubator for an additional 72 h. […] At the end of the incubation, cells from one set of the plates were lysed and the luciferase activity was measured using a luciferase assay kit. […]
The effects of dual combinations were evaluated using the Bliss independence model. (Greco et al., “The search for synergy: a critical review from a response surface perspective” Pharmacol. Rev. (1995) 47(2):331-385, which is hereby incorporated by reference in its entirety) The experimental data (RLU) was analyzed by using MacSynergy, a three-dimensional analytical method developed by Prichard and Shipman. […] The volume of the peak or depression is calculated to quantify the overall synergy or antagonism produced.

[1] = single compound, genotype 1b transient replicon in Huh-7-ET-cured cells, n = 3

| Compound | IC50 [1] | IC50 |
| --- | --- | --- |
| COc1ccc2c(O[C@@H]3C[C@H]4C(=O)N[C@]5(C(=O)NS(=O)(=O)C6CC6)C[C@H]5/C=C\CCCCN(C)C(=O)[C@@H]4C3)cc(-c3nc(C(C)C)cs3)nc2c1C [Compound 3013, TMC-435] | 2.1 nM | – |
| COC(=O)N[C@H](C(=O)N1CCC[C@H]1c1ncc(-c2ccc(-c3ccc(-c4cnc([C@@H]5CCCN5C(=O)[C@@H](NC(=O)OC)C(C)C)[nH]4)cc3)cc2)[nH]1)C(C)C [Compound 3043, Daclatasvir] | 0.0114 nM | – |
| CC(C)OC(=O)[C@H](C)N[P@](=S)(OC[C@H]1O[C@@H](n2ccc(=O)[nH]c2=O)[C@](C)(O)[C@@H]1O)Oc1ccccc1 [Compound 1004] | – | 357 nM |

From US9012427B2, “Pharmaceutical combinations comprising a thionucleotide analog” (Alios BioPharma, Inc., priority 2012, dated 2015)
